This is an account of results in ChEMBL document CHEMBL1201862, “PubChem BioAssay data set” (2004).

Active and inactive are the calls of the source.

One test has as its target Apelin receptor (Homo sapiens, UniProt P35414). Kind of test: apelin receptor antagonists, arrestin read-out – cell-based, luminescent, enzyme-fragment complementation, selectivity assay for CCR6 antagonist project, SAR follow-up (AID 588359). The format is functional.
Test [1] concerns the target C-X-C chemokine receptor type 5 (Homo sapiens, UniProt P32302). In words: inhibition of CXCL13-driven CXCR5 beta-arrestin recruitment – cell-based, luminescence, CHO-K1 PathHunter, selectivity assay for CCR6 antagonist project, SAR follow-up (AID 540340). Type of test: functional. On the technique in general: Arrestin recruitment assays detect the binding of arrestin to an activated receptor.

Test [2] has as its target C-C chemokine receptor type 6 (Homo sapiens, UniProt P51684). Kind of test: analog antagonism of CCR6 beta-arrestin signaling – cell-based, luminescent beta-arrestin readout, SAR follow-up (AID 540334). The format is functional.
The target of test [3] is T1, Heat shock factor protein 1 (Mus musculus, UniProt P38532).
T1 sequence (P38532 whole entry): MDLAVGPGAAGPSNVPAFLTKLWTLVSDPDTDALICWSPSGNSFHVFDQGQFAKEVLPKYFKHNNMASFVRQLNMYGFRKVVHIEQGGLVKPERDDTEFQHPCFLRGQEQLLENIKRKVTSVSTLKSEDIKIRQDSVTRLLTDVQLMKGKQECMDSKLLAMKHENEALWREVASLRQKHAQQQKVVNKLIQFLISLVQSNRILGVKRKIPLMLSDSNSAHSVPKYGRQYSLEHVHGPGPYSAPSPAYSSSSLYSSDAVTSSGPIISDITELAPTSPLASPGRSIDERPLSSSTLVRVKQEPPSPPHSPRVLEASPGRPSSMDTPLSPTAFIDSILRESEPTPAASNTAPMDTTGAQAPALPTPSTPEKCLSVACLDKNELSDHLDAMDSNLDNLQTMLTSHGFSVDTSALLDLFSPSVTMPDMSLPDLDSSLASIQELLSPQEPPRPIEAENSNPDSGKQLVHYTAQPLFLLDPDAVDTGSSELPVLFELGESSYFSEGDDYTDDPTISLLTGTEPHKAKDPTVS
In words: enhancement of HSF1-driven luciferase signal – cell-based, NIH3T3, luminescence, dose retest, confirmation (AID 435004).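 Further: stress induced by proteasome inhibitor MG132 added 30 min after compound; luciferase reporter driven by HSF1 response element in NIH3T3 cells; actives raise luminescence as potentiators of the MG132 stress response.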 The format is functional.

Test [4] concerns the target T2, Replicative DNA helicase DnaB (Mycobacterium tuberculosis, UniProt P9WMR3).
T2 sequence (P9WMR3 whole entry): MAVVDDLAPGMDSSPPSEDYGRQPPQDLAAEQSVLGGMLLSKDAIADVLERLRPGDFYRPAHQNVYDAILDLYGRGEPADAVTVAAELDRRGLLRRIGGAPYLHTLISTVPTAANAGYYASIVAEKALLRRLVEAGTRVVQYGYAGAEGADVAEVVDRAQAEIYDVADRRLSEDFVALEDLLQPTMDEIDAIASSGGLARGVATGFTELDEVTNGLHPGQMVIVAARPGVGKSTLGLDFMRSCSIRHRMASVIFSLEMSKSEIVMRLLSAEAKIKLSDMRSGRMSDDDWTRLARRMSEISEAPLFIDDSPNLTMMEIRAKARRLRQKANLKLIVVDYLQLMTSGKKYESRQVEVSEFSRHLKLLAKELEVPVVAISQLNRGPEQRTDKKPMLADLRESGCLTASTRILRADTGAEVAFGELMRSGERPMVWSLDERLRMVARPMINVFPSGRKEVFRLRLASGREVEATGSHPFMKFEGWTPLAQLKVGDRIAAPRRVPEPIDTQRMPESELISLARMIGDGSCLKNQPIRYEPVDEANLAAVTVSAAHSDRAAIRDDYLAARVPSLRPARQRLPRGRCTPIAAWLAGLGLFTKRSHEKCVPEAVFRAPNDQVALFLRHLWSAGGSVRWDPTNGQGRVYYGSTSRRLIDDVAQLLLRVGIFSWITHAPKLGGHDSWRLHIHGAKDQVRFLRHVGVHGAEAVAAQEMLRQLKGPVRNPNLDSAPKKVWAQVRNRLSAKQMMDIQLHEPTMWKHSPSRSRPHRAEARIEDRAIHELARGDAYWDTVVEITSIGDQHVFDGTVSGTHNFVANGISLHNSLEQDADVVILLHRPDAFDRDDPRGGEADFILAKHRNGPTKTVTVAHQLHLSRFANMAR
In words: DnaB intein splicing inhibitors, dose response, biochemical, cell-free fluorescence (AID 449749). Type of test: functional.

A further test concerns the target T3, Protein RecA (Mycobacterium tuberculosis, UniProt P9WHJ3).
T3 sequence (P9WHJ3 whole entry): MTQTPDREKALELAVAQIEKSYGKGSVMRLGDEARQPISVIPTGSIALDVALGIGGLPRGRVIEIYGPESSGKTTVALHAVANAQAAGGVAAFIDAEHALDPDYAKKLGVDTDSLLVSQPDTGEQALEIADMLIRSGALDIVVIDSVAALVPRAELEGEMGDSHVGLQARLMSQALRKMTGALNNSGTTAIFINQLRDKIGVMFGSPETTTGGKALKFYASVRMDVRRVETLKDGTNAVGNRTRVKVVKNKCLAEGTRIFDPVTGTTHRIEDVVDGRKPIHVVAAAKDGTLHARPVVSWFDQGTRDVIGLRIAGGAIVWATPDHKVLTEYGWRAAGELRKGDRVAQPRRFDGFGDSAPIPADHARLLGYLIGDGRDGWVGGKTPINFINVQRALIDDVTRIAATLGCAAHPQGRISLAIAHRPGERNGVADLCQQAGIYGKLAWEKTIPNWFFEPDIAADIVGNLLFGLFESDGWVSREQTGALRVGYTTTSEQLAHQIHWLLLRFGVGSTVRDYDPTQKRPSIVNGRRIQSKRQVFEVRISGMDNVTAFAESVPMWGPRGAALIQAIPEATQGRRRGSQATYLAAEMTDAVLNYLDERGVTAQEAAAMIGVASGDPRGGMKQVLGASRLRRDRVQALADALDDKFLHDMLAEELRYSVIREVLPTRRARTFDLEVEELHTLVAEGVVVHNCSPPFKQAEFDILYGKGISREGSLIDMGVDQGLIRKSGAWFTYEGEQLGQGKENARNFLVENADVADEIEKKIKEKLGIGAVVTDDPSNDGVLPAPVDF
Kind of test: Fluorescence Cell-Free Homogeneous Dose Retest to Identify Inhibitors of RecA-Intein Splicing Activity. [Related pubchem assays (depositor defined):AID2097, AID2223, AID489010, AID492950]. The format is functional.

A short description of test [5]: Trypanosoma cruzi growth suppression in host cells – NIH3T3 host cells, beta-gal luminescence, confirmation (AID 2044).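 Further: intracellular parasites grown in NIH/3T3 mouse fibroblasts as host cells; luminescent beta-galactosidase reporter signal from transgenic T. cruzi replicating inside host cells; inhibitors lower the luminescence signal.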 The format is functional, cell-based.
Test [6] in a line: NIH3T3 cell viability loss – ATP luminescence, mouse fibroblasts, counter-screen, dose response (AID 2010).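 Further: cells exposed to compound for about 90 hours before reading.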 The format is functional, cell-based.
In test [7] the target is Protein disulfide-isomerase (Homo sapiens, UniProt P07237). Kind of test: inhibition of PDI-driven insulin aggregation – biochemical, turbidity, absorbance, cherry-picked samples, dose response (AID 602350). The format is functional.
The target of test [8] is T4, High affinity choline transporter 1 (Homo sapiens, UniProt Q9GZV3).
T4 sequence (Q9GZV3 whole entry): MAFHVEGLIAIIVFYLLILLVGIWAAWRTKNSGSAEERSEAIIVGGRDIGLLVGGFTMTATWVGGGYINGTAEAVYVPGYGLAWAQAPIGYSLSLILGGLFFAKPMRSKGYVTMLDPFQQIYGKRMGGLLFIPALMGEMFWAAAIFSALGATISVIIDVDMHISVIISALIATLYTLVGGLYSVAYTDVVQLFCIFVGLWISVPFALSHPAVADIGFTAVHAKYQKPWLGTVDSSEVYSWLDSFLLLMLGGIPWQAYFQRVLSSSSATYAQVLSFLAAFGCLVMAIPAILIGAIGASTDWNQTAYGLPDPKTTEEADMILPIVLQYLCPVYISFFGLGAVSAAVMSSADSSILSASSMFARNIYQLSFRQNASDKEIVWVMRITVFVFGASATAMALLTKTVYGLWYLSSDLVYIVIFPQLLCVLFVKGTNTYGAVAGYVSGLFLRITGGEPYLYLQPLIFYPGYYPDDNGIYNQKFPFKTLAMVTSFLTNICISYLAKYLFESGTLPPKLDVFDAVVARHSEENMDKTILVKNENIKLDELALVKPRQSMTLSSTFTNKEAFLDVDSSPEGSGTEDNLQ
In words: human choline transporter potentiators, potency – cell-based, 10-point CRC, membrane potential dye, dose response (AID 602376). The format is functional.

Test [9] deals with Mitogen-activated protein kinase 13 (Homo sapiens, UniProt O15264). Type of test: functional.
The target of another test is Aurora kinase A (Homo sapiens, UniProt O14965). Type of test: functional.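 Further: value from the Navigating the Kinome kinase panel profiling, panel entry STK6.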
The target in test [10] is MAP/microtubule affinity-regulating kinase 3 (Homo sapiens, UniProt P27448). Type of test: functional.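 Further: MARK3 affinity measured as one member of a kinome panel.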
The target in test [11] is cAMP-dependent protein kinase catalytic subunit alpha (Homo sapiens, UniProt P17612). Type of test: functional.
Test [12] addresses Ribosomal protein S6 kinase alpha-3 (Homo sapiens, UniProt P51812). The format is functional.
The target in test [13] is Serine/threonine-protein kinase Chk2 (Homo sapiens, UniProt O96017). The format is functional.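 Further: CHEK2 entry within a kinome-wide screening panel.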
The target in test [14] is Protein kinase C delta type (Homo sapiens, UniProt Q05655). Type of test: functional.
In test [15] the target is Serine/threonine-protein kinase Chk1 (Homo sapiens, UniProt O14757). Type of test: functional.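 Further: measured as one member of a kinome-wide kinase profiling panel.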
Serine/threonine-protein kinase Chk1, sequence (O14757 whole entry): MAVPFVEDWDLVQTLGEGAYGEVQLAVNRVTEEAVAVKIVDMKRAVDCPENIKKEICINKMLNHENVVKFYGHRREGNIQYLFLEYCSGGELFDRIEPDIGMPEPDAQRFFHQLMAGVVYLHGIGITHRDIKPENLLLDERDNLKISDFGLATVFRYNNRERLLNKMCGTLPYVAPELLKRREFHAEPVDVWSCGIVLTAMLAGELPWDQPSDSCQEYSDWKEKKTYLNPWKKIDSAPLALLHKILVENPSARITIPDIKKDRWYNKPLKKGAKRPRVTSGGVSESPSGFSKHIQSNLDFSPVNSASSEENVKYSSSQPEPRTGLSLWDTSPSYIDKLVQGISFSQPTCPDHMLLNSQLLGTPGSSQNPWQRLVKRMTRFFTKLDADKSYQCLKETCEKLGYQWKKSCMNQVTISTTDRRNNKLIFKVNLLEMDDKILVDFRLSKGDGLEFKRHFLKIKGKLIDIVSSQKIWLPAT

Mitogen-activated protein kinase 13, sequence (O15264 whole entry): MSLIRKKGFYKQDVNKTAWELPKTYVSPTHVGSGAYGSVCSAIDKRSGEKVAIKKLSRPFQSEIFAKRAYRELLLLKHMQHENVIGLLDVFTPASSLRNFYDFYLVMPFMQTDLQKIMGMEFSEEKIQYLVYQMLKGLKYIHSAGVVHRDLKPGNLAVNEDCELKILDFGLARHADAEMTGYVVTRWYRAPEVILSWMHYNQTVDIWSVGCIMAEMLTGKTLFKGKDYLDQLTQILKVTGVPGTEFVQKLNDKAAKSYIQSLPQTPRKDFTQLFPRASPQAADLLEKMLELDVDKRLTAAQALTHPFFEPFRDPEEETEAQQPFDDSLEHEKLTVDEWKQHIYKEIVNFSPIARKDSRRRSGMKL
Ribosomal protein S6 kinase alpha-3, sequence (P51812 whole entry): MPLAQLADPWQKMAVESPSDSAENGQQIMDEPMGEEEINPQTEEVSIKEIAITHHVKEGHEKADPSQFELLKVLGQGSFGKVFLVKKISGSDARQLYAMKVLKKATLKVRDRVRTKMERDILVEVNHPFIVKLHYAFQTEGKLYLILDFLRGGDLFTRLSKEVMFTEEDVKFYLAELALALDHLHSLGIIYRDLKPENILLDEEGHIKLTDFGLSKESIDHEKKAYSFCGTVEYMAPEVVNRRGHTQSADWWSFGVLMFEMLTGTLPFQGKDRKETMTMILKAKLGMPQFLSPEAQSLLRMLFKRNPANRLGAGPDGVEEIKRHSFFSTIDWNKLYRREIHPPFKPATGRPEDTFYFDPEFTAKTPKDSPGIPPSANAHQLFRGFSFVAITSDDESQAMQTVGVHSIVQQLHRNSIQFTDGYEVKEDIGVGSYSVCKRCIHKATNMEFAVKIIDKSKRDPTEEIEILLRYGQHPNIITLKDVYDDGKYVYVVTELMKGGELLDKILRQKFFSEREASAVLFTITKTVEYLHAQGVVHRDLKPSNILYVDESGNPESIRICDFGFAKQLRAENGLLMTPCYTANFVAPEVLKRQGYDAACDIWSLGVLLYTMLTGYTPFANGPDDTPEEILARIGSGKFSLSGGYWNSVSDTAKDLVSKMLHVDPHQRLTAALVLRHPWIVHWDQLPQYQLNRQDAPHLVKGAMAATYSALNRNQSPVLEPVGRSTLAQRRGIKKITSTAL
Protein disulfide-isomerase, sequence (P07237 whole entry): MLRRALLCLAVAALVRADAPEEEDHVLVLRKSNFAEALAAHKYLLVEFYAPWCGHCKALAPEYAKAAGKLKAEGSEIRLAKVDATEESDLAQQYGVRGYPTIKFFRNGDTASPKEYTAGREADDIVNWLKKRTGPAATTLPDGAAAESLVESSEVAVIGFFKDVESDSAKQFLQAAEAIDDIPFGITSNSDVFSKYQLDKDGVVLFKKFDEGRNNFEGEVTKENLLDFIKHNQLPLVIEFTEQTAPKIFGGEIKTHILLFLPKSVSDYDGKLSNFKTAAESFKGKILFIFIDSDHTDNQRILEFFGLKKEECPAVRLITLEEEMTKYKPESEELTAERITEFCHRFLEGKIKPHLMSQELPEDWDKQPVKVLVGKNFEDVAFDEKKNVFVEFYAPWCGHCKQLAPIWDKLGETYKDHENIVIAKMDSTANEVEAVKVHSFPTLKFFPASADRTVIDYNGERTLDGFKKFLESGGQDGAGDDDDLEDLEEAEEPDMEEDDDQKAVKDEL
Aurora kinase A, sequence (O14965 whole entry): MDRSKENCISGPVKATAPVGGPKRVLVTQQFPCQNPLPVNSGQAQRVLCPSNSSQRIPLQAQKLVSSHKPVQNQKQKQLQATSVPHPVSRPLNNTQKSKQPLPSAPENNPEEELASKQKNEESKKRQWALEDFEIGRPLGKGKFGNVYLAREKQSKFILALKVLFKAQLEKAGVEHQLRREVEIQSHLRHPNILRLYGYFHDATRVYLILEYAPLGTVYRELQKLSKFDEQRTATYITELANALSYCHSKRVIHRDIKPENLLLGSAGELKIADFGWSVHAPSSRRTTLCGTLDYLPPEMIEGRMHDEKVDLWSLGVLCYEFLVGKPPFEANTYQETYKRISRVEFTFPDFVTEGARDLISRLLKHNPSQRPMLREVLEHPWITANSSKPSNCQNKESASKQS
C-C chemokine receptor type 6, sequence (P51684 whole entry): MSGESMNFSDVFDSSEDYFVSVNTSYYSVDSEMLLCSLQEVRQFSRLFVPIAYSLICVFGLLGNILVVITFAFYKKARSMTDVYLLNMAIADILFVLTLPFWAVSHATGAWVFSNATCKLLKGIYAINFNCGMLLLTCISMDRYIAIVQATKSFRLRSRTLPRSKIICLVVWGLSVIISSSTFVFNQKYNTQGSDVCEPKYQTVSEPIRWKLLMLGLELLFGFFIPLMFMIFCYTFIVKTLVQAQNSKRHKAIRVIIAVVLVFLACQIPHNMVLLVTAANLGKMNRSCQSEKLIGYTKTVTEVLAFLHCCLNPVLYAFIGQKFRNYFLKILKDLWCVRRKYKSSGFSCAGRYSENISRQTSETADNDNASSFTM
Serine/threonine-protein kinase Chk2, sequence (O96017 whole entry): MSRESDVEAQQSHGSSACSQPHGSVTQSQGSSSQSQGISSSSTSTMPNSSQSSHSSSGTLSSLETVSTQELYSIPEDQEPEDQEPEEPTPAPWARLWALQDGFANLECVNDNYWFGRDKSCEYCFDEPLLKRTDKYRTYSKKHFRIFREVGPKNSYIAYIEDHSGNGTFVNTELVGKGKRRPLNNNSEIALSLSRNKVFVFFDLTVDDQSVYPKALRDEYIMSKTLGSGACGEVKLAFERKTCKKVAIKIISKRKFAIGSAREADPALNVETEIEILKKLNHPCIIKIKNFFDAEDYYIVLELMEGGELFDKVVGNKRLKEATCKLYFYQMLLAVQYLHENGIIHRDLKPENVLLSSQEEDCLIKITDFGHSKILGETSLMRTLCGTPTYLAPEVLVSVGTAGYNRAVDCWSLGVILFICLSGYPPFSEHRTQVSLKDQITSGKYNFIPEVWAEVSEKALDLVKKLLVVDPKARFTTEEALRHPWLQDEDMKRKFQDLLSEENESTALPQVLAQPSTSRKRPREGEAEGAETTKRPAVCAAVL
Protein kinase C delta type, sequence (Q05655 whole entry): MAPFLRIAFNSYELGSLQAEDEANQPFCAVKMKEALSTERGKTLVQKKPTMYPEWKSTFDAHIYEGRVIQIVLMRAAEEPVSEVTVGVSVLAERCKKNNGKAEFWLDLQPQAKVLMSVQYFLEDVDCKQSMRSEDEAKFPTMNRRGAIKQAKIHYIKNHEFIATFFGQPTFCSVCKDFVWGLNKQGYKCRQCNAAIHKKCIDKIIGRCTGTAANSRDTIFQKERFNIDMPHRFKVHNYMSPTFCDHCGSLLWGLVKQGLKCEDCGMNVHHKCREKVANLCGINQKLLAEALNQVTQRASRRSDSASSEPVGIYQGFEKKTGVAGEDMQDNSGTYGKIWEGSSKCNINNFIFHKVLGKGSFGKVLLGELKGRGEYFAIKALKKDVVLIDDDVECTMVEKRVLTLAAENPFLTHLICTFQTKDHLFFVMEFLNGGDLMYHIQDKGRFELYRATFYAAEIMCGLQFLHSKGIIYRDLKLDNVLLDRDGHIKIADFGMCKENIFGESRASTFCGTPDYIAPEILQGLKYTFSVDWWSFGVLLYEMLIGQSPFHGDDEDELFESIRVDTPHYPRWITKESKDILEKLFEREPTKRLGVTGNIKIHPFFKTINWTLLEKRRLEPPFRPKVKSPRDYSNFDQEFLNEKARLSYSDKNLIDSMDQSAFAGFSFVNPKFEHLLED
MAP/microtubule affinity-regulating kinase 3, sequence (P27448 whole entry): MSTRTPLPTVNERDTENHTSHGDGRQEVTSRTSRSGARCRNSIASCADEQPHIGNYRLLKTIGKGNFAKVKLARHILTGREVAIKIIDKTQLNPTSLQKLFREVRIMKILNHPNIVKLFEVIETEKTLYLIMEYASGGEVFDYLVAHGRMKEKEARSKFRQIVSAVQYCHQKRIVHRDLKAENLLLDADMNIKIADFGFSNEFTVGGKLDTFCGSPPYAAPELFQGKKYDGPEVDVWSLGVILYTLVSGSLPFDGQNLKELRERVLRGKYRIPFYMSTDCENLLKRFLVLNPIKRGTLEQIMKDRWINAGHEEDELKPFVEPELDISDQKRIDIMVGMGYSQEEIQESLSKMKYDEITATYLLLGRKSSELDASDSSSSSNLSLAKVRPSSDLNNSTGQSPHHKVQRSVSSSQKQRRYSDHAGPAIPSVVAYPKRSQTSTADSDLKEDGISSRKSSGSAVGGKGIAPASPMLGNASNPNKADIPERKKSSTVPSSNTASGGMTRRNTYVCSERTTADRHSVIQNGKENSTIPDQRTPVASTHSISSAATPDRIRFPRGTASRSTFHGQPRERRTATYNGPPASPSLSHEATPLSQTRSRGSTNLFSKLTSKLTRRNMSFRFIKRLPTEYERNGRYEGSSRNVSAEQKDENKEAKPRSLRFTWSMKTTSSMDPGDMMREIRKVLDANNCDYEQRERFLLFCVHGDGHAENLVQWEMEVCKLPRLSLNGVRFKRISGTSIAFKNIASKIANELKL

On to `CN1CCc2nc(SCc3ccc(Cl)cc3)c(C#N)c(-c3cccs3)c2C1`, for which the EC50 – broadly, the midpoint of the concentration-response curve – was 14 nM (active) in “cells”; 10.1 µM (active) in test [3]; 4.41 µM (active) at Protein RecA; < 100 nM (active) in test [5]; > 60 µM (not active) in [6]. Also, the values for the IC50 (at Apelin receptor; in test [1]; in test [2]) were > 66.6 µM (inactive), 26.3 µM (inactive) and > 66.6 µM (inactive), respectively. In addition, in [4], the AC50 (usually the midpoint of the concentration-response curve, whichever way the signal moves) was > 380 µM (inactive).

Turning to `O=S(=O)(c1ccccc1)N1N=C(c2ccc(O)cc2)CC1c1ccco1` (centres undefined), in test [7], the AC50 is 19.5 µM (active).

As for `CC(c1ccccc1)N(CCC(c1ccccc1)C1CCOC(C)(C)C1)C(=O)c1ccco1` (centres undefined), in test [8], the EC50 was 5.67 µM (active).

Take `O=C(Nc1cnccn1)Nc1ccnc2c(F)cccc12`: in test [9], the Ki (as a rule, the dissociation constant of the complex between target and ligand, obtained from inhibition or displacement) was > 7.94 µM (inactive).

`CN(C)c1ncnc2nc[nH]c12` [DIMETHYLADENINE]: the Ki on Aurora kinase A is 3.98 µM (active); in [10], 5.01 µM (active); in [11], 15.8 µM (active); in test [12] it was 5.01 µM (active); in test [13] it was 3.98 µM (active); in test [14] it was 12.6 µM (active). In test [15], the Ki was 12.6 µM (active).
